Experiments:
RXF 393 [1] = assay: Cytotoxicity against human RXF 393 cells assessed as inhibition of cell viability incubated for 72 hrs under hypoxia condition by MTT assay; type: functional, cell-based; conditions: RXF 393, 72 h
Malme-3M = assay: Anticancer activity against human Malme-3M cells assessed as cell growth inhibition incubated for 48 hrs by SRB assay; type: functional
CAKI-1 = assay: Anticancer activity against human CAKI-1 cells assessed as cell growth inhibition incubated for 48 hrs by SRB assay; type: functional
SK-MEL-2 = assay: Anticancer activity against human SK-MEL-2 cells assessed as cell growth inhibition incubated for 48 hrs by SRB assay; type: functional
HT-29 = assay: Anticancer activity against human HT-29 cells assessed as cell growth inhibition incubated for 48 hrs by SRB assay; type: functional
SW-620 = assay: Anticancer activity against human SW-620 cells assessed as cell growth inhibition incubated for 48 hrs by SRB assay; type: functional
NCI-H522 = assay: Anticancer activity against human NCI-H522 cells assessed as cell growth inhibition incubated for 48 hrs by SRB assay; type: functional
MDA-MB-231 = assay: Anticancer activity against human MDA-MB-231 cells assessed as cell growth inhibition incubated for 48 hrs by SRB assay; type: functional
CCRF-CEM = assay: Anticancer activity against human CCRF-CEM cells assessed as cell growth inhibition incubated for 48 hrs by SRB assay; type: functional
M14 = assay: Anticancer activity against human M14 cells assessed as cell growth inhibition incubated for 48 hrs by SRB assay; type: functional
UACC-257 = assay: Anticancer activity against human UACC-257 cells assessed as cell growth inhibition incubated for 48 hrs by SRB assay; type: functional
SK-MEL-28 = assay: Anticancer activity against human SK-MEL-28 cells assessed as cell growth inhibition incubated for 48 hrs by SRB assay; type: functional
NCI-H226 = assay: Anticancer activity against human NCI-H226 cells assessed as cell growth inhibition incubated for 48 hrs by SRB assay; type: functional
HOP-62 = assay: Anticancer activity against human HOP-62 cells assessed as cell growth inhibition incubated for 48 hrs by SRB assay; type: functional
SNB-19 = assay: Anticancer activity against human SNB-19 cells assessed as cell growth inhibition incubated for 48 hrs by SRB assay; type: functional
ACHN = assay: Anticancer activity against human ACHN cells assessed as cell growth inhibition incubated for 48 hrs by SRB assay; type: functional
U-251 = assay: Anticancer activity against human U-251 cells assessed as cell growth inhibition incubated for 48 hrs by SRB assay; type: functional
NCI-H460 = assay: Anticancer activity against human NCI-H460 cells assessed as cell growth inhibition incubated for 48 hrs by SRB assay; type: functional
SF-539 = assay: Anticancer activity against human SF-539 cells assessed as cell growth inhibition incubated for 48 hrs by SRB assay; type: functional
OVCAR-8 = assay: Anticancer activity against human OVCAR-8 cells assessed as cell growth inhibition incubated for 48 hrs by SRB assay; type: functional
OVCAR-5 = assay: Anticancer activity against human OVCAR-5 cells assessed as cell growth inhibition incubated for 48 hrs by SRB assay; type: functional
BT-549 = assay: Anticancer activity against human BT-549 cells assessed as cell growth inhibition incubated for 48 hrs by SRB assay; type: functional
SF-295 = assay: Anticancer activity against human SF-295 cells assessed as cell growth inhibition incubated for 48 hrs by SRB assay; type: functional
MCF7 = assay: Anticancer activity against human MCF7 cells assessed as cell growth inhibition incubated for 48 hrs by SRB assay; type: functional
PC-3 = assay: Anticancer activity against human PC-3 cells assessed as cell growth inhibition incubated for 48 hrs by SRB assay; type: functional
HL-60(TB) = assay: Anticancer activity against human HL-60(TB) cells assessed as cell growth inhibition incubated for 48 hrs by SRB assay; type: functional
T47D = assay: Anticancer activity against human T47D cells assessed as cell growth inhibition incubated for 48 hrs by SRB assay; type: functional
SNB-75 = assay: Anticancer activity against human SNB-75 cells assessed as cell growth inhibition incubated for 48 hrs by SRB assay; type: functional
SF-268 = assay: Anticancer activity against human SF-268 cells assessed as cell growth inhibition incubated for 48 hrs by SRB assay; type: functional
786-0 = assay: Anticancer activity against human 786-0 cells assessed as cell growth inhibition incubated for 48 hrs by SRB assay; type: functional
IGROV-1 = assay: Anticancer activity against human IGROV-1 cells assessed as cell growth inhibition incubated for 48 hrs by SRB assay; type: functional
MDA-MB-435 = assay: Anticancer activity against human MDA-MB-435 cells assessed as cell growth inhibition incubated for 48 hrs by SRB assay; type: functional
A498 = assay: Anticancer activity against human A498 cells assessed as cell growth inhibition incubated for 48 hrs by SRB assay; type: functional
MDA-MB-468 = assay: Anticancer activity against human MDA-MB-468 cells assessed as cell growth inhibition incubated for 48 hrs by SRB assay; type: functional
TK-10 = assay: Anticancer activity against human TK-10 cells assessed as cell growth inhibition incubated for 48 hrs by SRB assay; type: functional
RXF 393 [2] = assay: Anticancer activity against human RXF 393 cells assessed as cell growth inhibition incubated for 48 hrs by SRB assay; type: functional
COLO 205 = assay: Anticancer activity against human COLO 205 cells assessed as cell growth inhibition incubated for 48 hrs by SRB assay; type: functional
SR = assay: Anticancer activity against human SR cells assessed as cell growth inhibition incubated for 48 hrs by SRB assay; type: functional
DU-145 = assay: Anticancer activity against human DU-145 cells assessed as cell growth inhibition incubated for 48 hrs by SRB assay; type: functional
OVCAR-3 = assay: Anticancer activity against human OVCAR-3 cells assessed as cell growth inhibition incubated for 48 hrs by SRB assay; type: functional
[3] = read-out: LC50 (the source's name)

`CN(C)c1ccc(/C=N/Nc2nc(Nc3ccccc3)nc(Nc3ccc(S(N)(=O)=O)cc3)n2)cc1` showed an IC50 (RXF 393 [1]) of 7.21 µM.
Work on `NS(=O)(=O)c1ccc(Nc2nc(N/N=C/c3ccc(C(F)(F)F)cc3)nc(Nc3ccccc3)n2)cc1` yielded a GI50 (Malme-3M) of 1.87 µM, a CC50 (Malme-3M; [3]) of 8.15 µM and a GI50 (CAKI-1) of 3.05 µM. It also gave a CC50 (CAKI-1; [3]) of 51.9 µM, a GI50 (SK-MEL-2) of 2.17 µM and a CC50 (SK-MEL-2; [3]) of 42.7 µM. For the same compound, the GI50 (HT-29) was 2.44 µM, the CC50 (HT-29; [3]) was 50.1 µM and the GI50 (SW-620) was 3.3 µM. For the same compound, the CC50 (SW-620; [3]) was over 100 µM, the GI50 (NCI-H522) was 2.66 µM and the CC50 (NCI-H522; [3]) was 87.1 µM. It also gave a GI50 (MDA-MB-231) of 2.31 µM, an LC50 (concentration killing 50% of cells) (MDA-MB-231) of 33.7 µM and a GI50 (CCRF-CEM) of 3 µM. It also gave a CC50 (CCRF-CEM; [3]) of over 100 µM, a GI50 (M14) of 2.51 µM and a CC50 (M14; [3]) of 63.3 µM. The GI50 (UACC-257) was 2.42 µM, the LC50 (UACC-257) was 37.2 µM and the GI50 (SK-MEL-28) was 2.44 µM. It also gave a CC50 (SK-MEL-28; [3]) of 26.3 µM, a GI50 (NCI-H226) of 2.45 µM and a CC50 (NCI-H226; [3]) of over 100 µM. For the same compound, the GI50 (HOP-62) was 2.15 µM, the CC50 (HOP-62; [3]) was 69.7 µM and the GI50 (SNB-19) was 3.46 µM. The CC50 (SNB-19; [3]) was 40.6 µM, the GI50 (ACHN) was 2.68 µM and the CC50 (ACHN; [3]) was 26.5 µM. The GI50 (U-251) was 2.69 µM, the CC50 (U-251; [3]) was 71.4 µM and the GI50 (NCI-H460) was 3.02 µM. For the same compound, the CC50 (NCI-H460; [3]) was over 100 µM, the GI50 (SF-539) was 1.86 µM and the CC50 (SF-539; [3]) was 9.61 µM. For the same compound, the GI50 (OVCAR-8) was 2.83 µM, the LC50 (OVCAR-8) was 35.5 µM and the GI50 (OVCAR-5) was 2.96 µM. For the same compound, the CC50 (OVCAR-5; [3]) was 39.9 µM, the GI50 (BT-549) was 2.79 µM and the CC50 (BT-549; [3]) was 37.2 µM. The GI50 (SF-295) was 1.92 µM, the CC50 (SF-295; [3]) was 8.63 µM and the GI50 (MCF7) was 2.18 µM. It also gave an LC50 (MCF7) of 64.8 µM, a GI50 (PC-3) of 2.8 µM and a CC50 (PC-3; [3]) of 78.5 µM. The GI50 (HL-60(TB)) was 3.59 µM, the CC50 (HL-60(TB); [3]) was over 100 µM and the GI50 (T47D) was 2.48 µM. It also gave an LC50 (T47D) of over 100 µM, a GI50 (SNB-75) of 2.05 µM and an LC50 (concentration killing 50% of cells) (SNB-75) of 37.5 µM. For the same compound, the GI50 (SF-268) was 3.51 µM, the LC50 (concentration killing 50% of cells) (SF-268) was over 100 µM and the GI50 (786-0) was 2.22 µM. For the same compound, the CC50 (786-0; [3]) was 33.7 µM, the GI50 (IGROV-1) was 2.64 µM and the CC50 (IGROV-1; [3]) was 53.8 µM. For the same compound, the GI50 (MDA-MB-435) was 2.07 µM, the LC50 (MDA-MB-435) was 9.53 µM and the GI50 (A498) was 2.61 µM. For the same compound, the CC50 (A498; [3]) was 63.8 µM, the GI50 (MDA-MB-468) was 1.73 µM and the CC50 (MDA-MB-468; [3]) was 8.63 µM. For the same compound, the GI50 (TK-10) was 3.45 µM, the CC50 (TK-10; [3]) was 33.7 µM and the GI50 (RXF 393 [2]) was 1.82 µM. It also gave a CC50 (RXF 393 [2]; [3]) of 35.5 µM, a GI50 (COLO 205) of 1.86 µM and a CC50 (COLO 205; [3]) of 10.9 µM. For the same compound, the GI50 (SR) was 3.07 µM, the CC50 (SR; [3]) was over 100 µM and the GI50 (DU-145) was 3.31 µM. It also gave an LC50 (50% lethal concentration) (DU-145) of 36.7 µM, a GI50 (OVCAR-3) of 3.32 µM and an LC50 (concentration killing 50% of cells) (OVCAR-3) of over 100 µM.

From ChEMBL document CHEMBL5154747, “Discovery of new carbonic anhydrase IX inhibitors as anticancer agents by toning the hydrophobic and hydrophilic rims of the active site to encounter the dual-tail approach” (Eur J Med Chem, 2022)
